Results taken from US6545031B1, “Endothelin receptor antagonists” (SmithKline Beecham Corporation, priority 1995, dated 2003).

melting point	SMILES
213 to 214 °C	CCCCn1ncc(/C=C(\Cc2cc3c(cc2OC)OCO3)C(=O)O)c1-c1ccc(OC)cc1OCc1ccccc1C(=O)O [Example 1, (E)-alpha-[[1-n-Butyl-5-[2-[(2-carboxyphenyl)methoxy]-4-methoxyphenyl]-1H-pyrazol-4-yl]methylene]-6-methoxy-1,3-benzodioxole-5-propanoic Acid]
226 to 227 °C	CCCCn1cc(/C=C(\Cc2cc3c(cc2OC)OCO3)C(=O)O)c(-c2ccc(OC)cc2OCc2ccccc2C(=O)O)n1 [Example 2, (E)-alpha-[[1-n-Butyl-3-[2-[(2-carboxyphenyl)methoxy]-4-methoxyphenyl]-1H-pyrazol-4-yl]methylene]-6-methoxy-1,3-benzodioxole-5-propanoic Acid]
